{"source": "ChEMBL document CHEMBL6109139", "about": "“Rational Design of the First Dual Agonist at Trace Amine-Associated Receptor 1 and 5-HT2C Receptors Based on Binding Pocket Similarity for the Treatment of Schizophrenia and Alzheimer's Disease-Related Psychosis” (J Med Chem, 2025)", "key": {"[1]": {"test": "Cardiotoxicity in conscious cynomolgus monkey assessed as decrease in body temperature at 3.125 to 12.5 mg/kg, IG by digital thermometer analysis", "type": "toxicity, organism-based, Macaca fascicularis", "settings": "in vivo, po, dose 3.125-12.5 mg/kg"}, "[2]": {"test": "Toxicity in Sprague-Dawley rat assessed as normal spontaneous movement at 2.5 to 7.5 mg/kg, po administered once daily for 4 weeks and measured after 4 weeks", "type": "organism-based", "settings": "in vivo, 1344 h, dose 2.5-7.5 mg/kg, time 8 weeks"}, "Mus musculus [3]": {"test_system": "Mus musculus", "test": "Antipsychotic activity against MK-801 induced hyperlocomotion in male C57BL/6J mouse model assessed as reduction in hyperlocomotive state at 5 mg/kg, IG pretreated with compound followed by MK-801 addition and measured after 30 mins by open field test", "type": "functional, organism-based"}, "[4]": {"test": "Toxicity in male Sprague-Dawley rat assessed as piloerection at 7.5 mg/kg, po administered once daily for 4 weeks and measured after 4 weeks", "type": "organism-based", "settings": "in vivo, 1344 h, time 8 weeks"}, "[5]": {"target": "Trace amine-associated receptor 1 (Mus musculus, UniProt Q923Y8)", "sequence (Q923Y8 whole entry)": "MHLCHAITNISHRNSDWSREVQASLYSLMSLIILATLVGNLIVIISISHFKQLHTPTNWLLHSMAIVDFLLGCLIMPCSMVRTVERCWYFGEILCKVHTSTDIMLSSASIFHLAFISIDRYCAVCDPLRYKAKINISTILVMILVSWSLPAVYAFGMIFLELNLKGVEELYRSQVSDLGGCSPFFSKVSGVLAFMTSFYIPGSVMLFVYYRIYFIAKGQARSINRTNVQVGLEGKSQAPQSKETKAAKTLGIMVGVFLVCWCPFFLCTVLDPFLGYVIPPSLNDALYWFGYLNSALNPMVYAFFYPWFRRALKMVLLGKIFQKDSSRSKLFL", "test": "Agonist activity at mouse TAAR1", "type": "functional"}, "[6]": {"test": "Toxicity in female Sprague-Dawley rat assessed as slow respiration at 7.5 mg/kg, po administered once daily for 4 weeks and measured after 4 weeks", "type": "organism-based", "settings": "in vivo, 1344 h, time 8 weeks"}, "[7]": {"test": "Cardiotoxicity in conscious cynomolgus monkey assessed as waveform abnormalities in leas-II ECG at 3.125 to 12.5 mg/kg, IG measured within 24 hrs by EcgAUTO analysis", "type": "toxicity, organism-based, Macaca fascicularis", "settings": "in vivo, po, dose 3.125-12.5 mg/kg"}, "[8]": {"test": "Cardiotoxicity in conscious cynomolgus monkey assessed as good general health at 3.125 to 12.5 mg/kg, IG", "type": "toxicity, organism-based, Macaca fascicularis", "settings": "in vivo, po, dose 3.125-12.5 mg/kg"}, "[9]": {"target": "Glutamate [NMDA] receptor (Homo sapiens) (UniProt Q05586+Q12879+Q13224+O15399+O60391+Q14957+Q8TCU5)", "test": "Binding affinity to NMDA receptor (unknown origin) at 10 uM by radioligand binding assay relative to control", "type": "protein-complex assay"}, "Mus musculus [10]": {"test_system": "Mus musculus", "test": "Antipsychotic activity in amyloid beta(1 to 42) induced cognitive impairment in mouse model assessed as increase in discrimination ratio of novel objects at 1 mg/kg, IG measured after 24 hrs by novel object recognition test", "type": "functional, organism-based"}, "Mus musculus [11]": {"test_system": "Mus musculus", "test": "Antipsychotic activity against MK-801 induced hypermobilization in male C57BL/6J mouse model assessed as reduction in hypermobilization state at 10 mg/kg, IG pretreated with compound followed by MK-801 addition and measured after 30 mins by open field test", "type": "functional, organism-based"}, "[12]": {"test": "Toxicity in male Beagle dog assessed as change in organ ratios at 0.75 to 2.5 mg/kg, IG administered once daily for 4 weeks and measured after 4 weeks", "type": "organism-based, Canis lupus familiaris", "settings": "in vivo, po, 1344 h, dose 0.75-2.5 mg/kg, time 8 weeks"}, "[13]": {"target": "Trace amine-associated receptor 1 (Rattus norvegicus, UniProt Q923Y9)", "sequence (Q923Y9 whole entry)": "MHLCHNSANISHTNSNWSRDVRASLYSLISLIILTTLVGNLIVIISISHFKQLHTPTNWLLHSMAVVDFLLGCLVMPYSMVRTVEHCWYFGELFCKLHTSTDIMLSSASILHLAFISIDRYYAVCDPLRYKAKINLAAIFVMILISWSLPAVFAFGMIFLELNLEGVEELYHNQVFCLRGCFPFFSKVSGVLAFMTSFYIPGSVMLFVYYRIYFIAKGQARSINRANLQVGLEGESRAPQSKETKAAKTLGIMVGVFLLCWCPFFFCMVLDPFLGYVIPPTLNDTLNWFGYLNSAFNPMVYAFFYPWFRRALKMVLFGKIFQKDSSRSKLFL", "test": "Agonist activity at rat TAAR1", "type": "functional"}, "Cytochrome P450 2C19": {"target": "Cytochrome P450 2C19 (Homo sapiens, UniProt P33261)", "sequence (P33261 whole entry)": "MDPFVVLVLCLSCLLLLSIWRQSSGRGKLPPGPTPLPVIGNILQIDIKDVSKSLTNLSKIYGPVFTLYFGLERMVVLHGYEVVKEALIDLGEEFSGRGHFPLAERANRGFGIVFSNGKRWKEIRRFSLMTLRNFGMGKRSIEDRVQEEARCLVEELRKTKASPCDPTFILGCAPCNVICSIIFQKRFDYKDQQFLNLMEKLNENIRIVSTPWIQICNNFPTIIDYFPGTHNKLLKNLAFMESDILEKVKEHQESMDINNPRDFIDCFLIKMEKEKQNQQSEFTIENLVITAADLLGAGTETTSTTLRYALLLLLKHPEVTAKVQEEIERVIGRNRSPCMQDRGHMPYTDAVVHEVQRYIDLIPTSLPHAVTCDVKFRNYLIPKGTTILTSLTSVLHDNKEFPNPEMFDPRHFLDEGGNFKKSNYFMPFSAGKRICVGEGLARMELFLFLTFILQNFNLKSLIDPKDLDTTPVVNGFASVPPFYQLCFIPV", "test": "Inhibition of CYP2C19 in human liver microsomes in presence of NADPH by LC-MS/MS analysis", "type": "ADME, Microsome"}, "[14]": {"test": "Toxicity in male Beagle dog assessed as change in gross necropsy at 0.75 to 2.5 mg/kg, IG administered once daily for 4 weeks and measured after 4 weeks", "type": "organism-based, Canis lupus familiaris", "settings": "in vivo, po, 1344 h, dose 0.75-2.5 mg/kg, time 8 weeks"}, "Homo sapiens": {"species": "Homo sapiens", "test": "Binding affinity to CCKa (unknown origin) at 10 uM by radioligand binding assay relative to control"}, "[15]": {"target": "3',5'-cyclic-AMP phosphodiesterase 4D (Homo sapiens) (UniProt Q08499)", "sequence (Q08499 whole entry)": "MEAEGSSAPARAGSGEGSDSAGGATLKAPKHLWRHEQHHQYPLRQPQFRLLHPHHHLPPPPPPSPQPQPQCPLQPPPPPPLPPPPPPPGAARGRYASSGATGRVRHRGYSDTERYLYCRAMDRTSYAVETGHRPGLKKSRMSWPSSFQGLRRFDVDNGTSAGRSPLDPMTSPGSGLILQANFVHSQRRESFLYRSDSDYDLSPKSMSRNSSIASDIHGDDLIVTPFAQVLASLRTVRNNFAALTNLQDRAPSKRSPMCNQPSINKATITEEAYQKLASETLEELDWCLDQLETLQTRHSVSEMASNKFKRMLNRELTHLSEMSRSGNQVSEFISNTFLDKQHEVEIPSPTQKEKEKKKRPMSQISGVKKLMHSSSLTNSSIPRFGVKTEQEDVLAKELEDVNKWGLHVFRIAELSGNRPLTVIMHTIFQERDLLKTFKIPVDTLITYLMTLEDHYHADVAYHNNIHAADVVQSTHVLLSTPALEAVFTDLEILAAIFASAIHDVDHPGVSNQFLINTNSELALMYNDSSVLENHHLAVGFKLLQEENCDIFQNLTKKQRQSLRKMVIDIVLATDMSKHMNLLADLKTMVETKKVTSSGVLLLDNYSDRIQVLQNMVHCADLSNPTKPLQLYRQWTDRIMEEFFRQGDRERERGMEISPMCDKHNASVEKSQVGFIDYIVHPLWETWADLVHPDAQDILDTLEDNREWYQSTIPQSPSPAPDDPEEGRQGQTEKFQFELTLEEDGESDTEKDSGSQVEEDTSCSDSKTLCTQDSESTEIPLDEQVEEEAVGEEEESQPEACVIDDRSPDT", "test": "Binding affinity to PDE4D2 receptor (unknown origin) at 10 uM by radioligand binding assay relative to control"}, "[16]": {"target": "Adenosine receptor A2a (Homo sapiens) (UniProt P29274)", "sequence (P29274 whole entry)": "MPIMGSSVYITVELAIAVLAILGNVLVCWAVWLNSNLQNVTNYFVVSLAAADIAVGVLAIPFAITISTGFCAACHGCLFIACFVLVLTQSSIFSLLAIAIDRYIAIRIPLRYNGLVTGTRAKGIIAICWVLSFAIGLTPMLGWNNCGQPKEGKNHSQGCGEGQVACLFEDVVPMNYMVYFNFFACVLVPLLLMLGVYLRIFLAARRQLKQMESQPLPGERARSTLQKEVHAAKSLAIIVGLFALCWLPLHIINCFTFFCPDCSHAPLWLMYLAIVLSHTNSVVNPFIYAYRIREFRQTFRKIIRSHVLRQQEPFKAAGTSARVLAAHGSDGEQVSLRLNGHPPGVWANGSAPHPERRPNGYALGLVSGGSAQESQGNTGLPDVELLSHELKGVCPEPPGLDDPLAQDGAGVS", "test": "Binding affinity to ADORA2A (unknown origin) at 10 uM by radioligand binding assay relative to control"}, "[17]": {"test": "Toxicity in female Sprague-Dawley rat assessed as suppression of body weight gain at 7.5 mg/kg, po administered once daily for 4 weeks and measured weekly twice", "type": "organism-based", "settings": "in vivo, 672 h"}, "[18]": {"test": "Toxicity in female Beagle dog assessed as somnolence at 2.5 mg/kg, IG administered once daily for 4 weeks and measured after 4 weeks", "type": "organism-based, Canis lupus familiaris", "settings": "in vivo, po, 1344 h, time 8 weeks"}, "[19]": {"target": "5-hydroxytryptamine receptor 2C (Mus musculus, UniProt P34968)", "sequence (P34968 whole entry)": "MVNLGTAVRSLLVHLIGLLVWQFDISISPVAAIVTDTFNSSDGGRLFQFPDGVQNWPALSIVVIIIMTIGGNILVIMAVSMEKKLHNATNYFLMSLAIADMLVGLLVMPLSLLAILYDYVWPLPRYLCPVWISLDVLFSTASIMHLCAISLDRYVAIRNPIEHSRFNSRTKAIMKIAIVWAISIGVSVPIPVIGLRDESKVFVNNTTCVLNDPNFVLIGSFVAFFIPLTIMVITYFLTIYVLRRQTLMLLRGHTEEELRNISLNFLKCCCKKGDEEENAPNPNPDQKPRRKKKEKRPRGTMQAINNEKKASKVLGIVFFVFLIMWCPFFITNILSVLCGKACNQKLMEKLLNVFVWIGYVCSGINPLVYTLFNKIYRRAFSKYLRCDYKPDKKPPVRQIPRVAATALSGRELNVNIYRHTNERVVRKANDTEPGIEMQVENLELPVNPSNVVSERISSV", "test": "Agonist activity at mouse 5-HT2CR", "type": "functional"}, "[20]": {"test": "Toxicity in male Sprague-Dawley rat assessed as slow respiration at 7.5 mg/kg, po administered once daily for 4 weeks", "type": "organism-based", "settings": "in vivo, 672 h"}, "[21]": {"target": "Neuronal acetylcholine receptor subunit alpha-7 (Homo sapiens) (UniProt P36544)", "sequence (P36544 whole entry)": "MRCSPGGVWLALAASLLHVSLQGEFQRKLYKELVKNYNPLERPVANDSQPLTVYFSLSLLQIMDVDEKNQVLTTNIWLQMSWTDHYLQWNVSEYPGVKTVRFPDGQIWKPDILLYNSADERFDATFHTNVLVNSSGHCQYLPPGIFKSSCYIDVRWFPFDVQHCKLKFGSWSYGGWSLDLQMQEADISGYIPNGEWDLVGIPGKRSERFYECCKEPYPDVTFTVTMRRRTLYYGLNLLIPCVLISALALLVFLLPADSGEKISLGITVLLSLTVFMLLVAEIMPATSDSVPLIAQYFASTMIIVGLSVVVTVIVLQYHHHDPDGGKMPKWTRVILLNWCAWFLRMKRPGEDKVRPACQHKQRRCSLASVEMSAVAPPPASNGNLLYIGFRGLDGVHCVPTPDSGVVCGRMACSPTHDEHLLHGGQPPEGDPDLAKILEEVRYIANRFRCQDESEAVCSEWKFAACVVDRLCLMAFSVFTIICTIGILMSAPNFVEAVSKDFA", "test": "Binding affinity to nACHR-alpha7 (unknown origin) at 10 uM by radioligand binding assay relative to control"}, "KCNQ1": {"target": "KCNQ1 (Homo sapiens, UniProt P51787)", "test": "Binding affinity to human KCNQ1 receptor at 10 uM by radioligand binding assay relative to control", "settings": "read-out: Activity"}, "[22]": {"target": "T1, 5-hydroxytryptamine receptor 2C (Homo sapiens, UniProt P28335)", "T1 sequence (P28335 whole entry)": "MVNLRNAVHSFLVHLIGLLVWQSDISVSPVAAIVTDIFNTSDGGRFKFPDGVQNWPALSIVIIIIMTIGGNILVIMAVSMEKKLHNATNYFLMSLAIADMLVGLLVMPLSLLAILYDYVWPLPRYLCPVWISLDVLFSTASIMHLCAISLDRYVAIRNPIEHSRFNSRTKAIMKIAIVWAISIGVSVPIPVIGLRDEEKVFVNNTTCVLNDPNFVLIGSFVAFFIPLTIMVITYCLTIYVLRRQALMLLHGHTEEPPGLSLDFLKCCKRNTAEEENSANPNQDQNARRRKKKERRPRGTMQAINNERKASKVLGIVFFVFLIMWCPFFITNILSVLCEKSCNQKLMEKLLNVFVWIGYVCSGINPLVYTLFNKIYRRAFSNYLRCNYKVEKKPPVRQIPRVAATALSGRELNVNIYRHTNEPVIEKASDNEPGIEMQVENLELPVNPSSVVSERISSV", "test": "Agonist activity at recombinant human 5-HT2CR expressed in HEK293 cells incubated for 2 hrs by FLIPR calcium assay", "type": "functional, cell-based"}, "[23]": {"test": "Toxicity in female Sprague-Dawley rat assessed as corneal epithelial degeneration at 2.5 to 7.5 mg/kg, po administered once daily for 4 weeks and measured after 4 weeks", "type": "organism-based", "settings": "in vivo, 1344 h, dose 2.5-7.5 mg/kg, time 8 weeks"}, "[24]": {"test": "Toxicity in female Beagle dog assessed as change in body temperature at 0.75 to 2.5 mg/kg, IG administered once daily for 4 weeks and measured after 4 weeks", "type": "organism-based, Canis lupus familiaris", "settings": "in vivo, po, 1344 h, dose 0.75-2.5 mg/kg, time 8 weeks"}, "[25]": {"target": "Sodium-dependent dopamine transporter (Homo sapiens) (UniProt Q01959)", "sequence (Q01959 whole entry)": "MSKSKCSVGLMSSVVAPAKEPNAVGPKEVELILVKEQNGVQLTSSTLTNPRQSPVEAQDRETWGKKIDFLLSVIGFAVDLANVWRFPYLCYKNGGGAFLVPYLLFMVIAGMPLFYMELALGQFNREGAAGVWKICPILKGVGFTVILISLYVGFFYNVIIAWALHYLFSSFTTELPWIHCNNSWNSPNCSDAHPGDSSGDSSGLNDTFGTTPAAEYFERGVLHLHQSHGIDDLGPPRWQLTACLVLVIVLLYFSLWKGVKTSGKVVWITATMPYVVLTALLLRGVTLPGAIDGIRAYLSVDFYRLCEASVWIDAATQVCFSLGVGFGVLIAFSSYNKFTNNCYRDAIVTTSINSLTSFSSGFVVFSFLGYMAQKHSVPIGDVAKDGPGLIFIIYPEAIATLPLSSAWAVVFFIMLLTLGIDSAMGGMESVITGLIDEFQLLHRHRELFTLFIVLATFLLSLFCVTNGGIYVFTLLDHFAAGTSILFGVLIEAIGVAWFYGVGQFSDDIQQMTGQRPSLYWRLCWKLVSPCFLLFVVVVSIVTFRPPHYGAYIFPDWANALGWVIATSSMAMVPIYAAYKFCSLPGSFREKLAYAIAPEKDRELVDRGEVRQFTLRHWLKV", "test": "Binding affinity to DAT receptor (unknown origin) at 10 uM by radioligand binding assay relative to control"}, "[26]": {"test": "Toxicity in female Beagle dog assessed as change in gross necropsy at 0.75 to 2.5 mg/kg, IG administered once daily for 4 weeks and measured after 4 weeks", "type": "organism-based, Canis lupus familiaris", "settings": "in vivo, po, 1344 h, dose 0.75-2.5 mg/kg, time 8 weeks"}, "[27]": {"target": "5-hydroxytryptamine receptor 3A (Homo sapiens) (UniProt P46098)", "sequence (P46098 whole entry)": "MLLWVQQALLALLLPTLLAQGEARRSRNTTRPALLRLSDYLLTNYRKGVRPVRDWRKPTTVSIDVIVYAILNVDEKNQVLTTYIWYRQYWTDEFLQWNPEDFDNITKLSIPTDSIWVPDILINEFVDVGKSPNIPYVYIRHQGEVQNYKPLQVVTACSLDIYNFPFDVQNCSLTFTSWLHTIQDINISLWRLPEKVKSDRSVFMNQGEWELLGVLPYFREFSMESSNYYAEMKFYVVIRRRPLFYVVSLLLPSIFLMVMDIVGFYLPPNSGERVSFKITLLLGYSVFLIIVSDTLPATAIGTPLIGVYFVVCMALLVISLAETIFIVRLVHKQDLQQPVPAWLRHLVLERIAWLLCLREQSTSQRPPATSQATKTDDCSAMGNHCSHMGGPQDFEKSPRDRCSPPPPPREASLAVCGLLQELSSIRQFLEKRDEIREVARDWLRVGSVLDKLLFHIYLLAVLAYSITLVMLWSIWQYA", "test": "Binding affinity to 5-HT3 (unknown origin) at 10 uM by radioligand binding assay relative to control"}, "[28]": {"test": "Mutagenicity in Salmonella typhimurium TA97a by Ames test", "type": "toxicity", "settings": "salmonella enterica subsp. enterica serovar typhimurium"}}, "note": "Activity calls are given as the source filed them. The rule behind the calls is not given here."}
{"smiles": "c1cc2c(s1)[C@@H]1CNCCN1CC2", "values": [{"measurement": "Activity", "setting": "[1]", "value": "Non-toxic"}, {"measurement": "Activity", "setting": "[2]", "value": "Non-toxic"}, {"measurement": "Activity", "setting": "Mus musculus [3]", "value": "Active; More Effective Than Aripiprazole"}, {"measurement": "Activity", "setting": "[4]", "value": "Non-toxic"}, {"measurement": "EC50", "setting": "[5]", "value": 72.3, "unit": "nM"}, {"measurement": "Activity", "setting": "[6]", "value": "Non-toxic"}, {"measurement": "Activity", "setting": "[7]", "value": "Non-toxic"}, {"measurement": "Activity", "setting": "[8]", "value": "Non-toxic"}, {"measurement": "Activity", "setting": "[9]", "value": 4.53, "unit": "%"}, {"measurement": "Activity", "setting": "Mus musculus [10]", "value": "Active"}, {"measurement": "Activity", "setting": "Mus musculus [11]", "value": "Active; Similar Effect Observed Compared To Brexpiprazole"}, {"measurement": "Activity", "setting": "[12]", "value": "Non-toxic"}, {"measurement": "EC50", "setting": "[13]", "value": 682, "unit": "nM"}, {"measurement": "IC50", "setting": "Cytochrome P450 2C19", "value": "> 50000", "unit": "nM"}, {"measurement": "Activity", "setting": "[14]", "value": "Non-toxic"}, {"measurement": "Activity", "setting": "Homo sapiens", "value": 1.26, "unit": "%"}, {"measurement": "Activity", "setting": "[15]", "value": 5.4, "unit": "%"}, {"measurement": "Activity", "setting": "[16]", "value": -1.11, "unit": "%"}, {"measurement": "Activity", "setting": "[17]", "value": "Toxic"}, {"measurement": "Activity", "setting": "[18]", "value": "Non-toxic"}, {"measurement": "EC50", "setting": "[19]", "value": 74.4, "unit": "nM"}, {"measurement": "Activity", "setting": "[20]", "value": "Toxic"}, {"measurement": "Activity", "setting": "[21]", "value": 5.02, "unit": "%"}, {"measurement": "activity at 10 µM", "setting": "KCNQ1", "value": 28.4, "unit": "%"}, {"measurement": "EC50", "setting": "[22]", "value": 246, "unit": "nM"}, {"measurement": "Activity", "setting": "[23]", "value": "Non-toxic"}, {"measurement": "Activity", "setting": "[24]", "value": "Non-toxic"}, {"measurement": "Activity", "setting": "[25]", "value": -6.53, "unit": "%"}, {"measurement": "Activity", "setting": "[26]", "value": "Non-toxic"}, {"measurement": "Activity", "setting": "[27]", "value": 13, "unit": "%"}, {"measurement": "Activity", "setting": "[28]", "value": "Non-toxic"}]}
